Test results from ChEMBL document CHEMBL1123297, “9-(2-Fluorobenzyl)-6-(methylamino)-9H-purine hydrochloride. Synthesis and anticonvulsant activity” (J Med Chem, 1986).

Legend:
[1] = tested on: Mus musculus; assay: Concentration required to protect 50 % of mice against hind limb extensor component in MES test when administered intravenously; format: functional; conditions: Hindlimb, iv
[2] = tested on: Rattus norvegicus; assay: Compound was evaluated for the anticonvulsant activity by testing its ability to protect against maximal electroshock- induced seizures in rats; Intravenous administration (iv); format: functional
[3] = tested on: Mus musculus; assay: Concentration required to protect 50 % of mice against hind limb extensor component in MES test when administered perorally; format: functional; conditions: Hindlimb, po
[4] = species on record: Rattus norvegicus; assay: (§1) Compound was evaluated for the anticonvulsant activity in rats.; format: organism-based; conditions: in vivo
[5] = as §1; format: organism-based; conditions: rat, in vivo
[6] = tested on: Rattus norvegicus; assay: Compound was evaluated for the anticonvulsant activity by testing its ability to protect against maximal electroshock- induced seizures in rats; Intraperitoneal administration (ip); format: functional
[7] = tested on: Rattus norvegicus; assay: Compound was evaluated for the anticonvulsant activity by testing its ability to protect against maximal electroshock- induced seizures in rats after peroral administration (po); format: functional
[8] = tested on: Mus musculus; assay: Concentration required to protect 50 % of mice against hind limb extensor component in MES test when administered intraperitoneally; format: functional; conditions: Hindlimb, ip
[9] = tested on: Rattus norvegicus; assay: Compound was evaluated for the anticonvulsant activity by testing its ability to protect against maximal electroshock- induced seizures in rats; Peroral administration (po); format: functional

Structure (SMILES) | ED50 [1] [mg/kg] | ED50 [2] [mg/kg] | ED50 [3] [mg/kg] | LD50 [4] [mg/kg] | LD50 [5] [mg/kg] | ED50 [6] [mg/kg] | ED50 [7] [mg/kg] | ED50 [8] [mg/kg] | ED50 [9] [mg/kg]
CNc1ncnc2c1ncn2Cc1ccccc1F [BW-A78U] | 4 | 0.2 | 14 | > 500 | > 1000 | 1.7 | 2.5 | 5 | –
O=C1NC(=O)C(c2ccccc2)(c2ccccc2)N1 [PHENYTOIN] | 1.8 | 4 | 22 | – | – | 10 | – | 9 | 20
